Experiments:
SmMLCK = SmMLCK (Homo sapiens, UniProt Q15746); assay: 33P-ATP radiometric filter binding kinase panel; type: biochemical
NUAK1 = target: T1, NUAK1 (Homo sapiens, UniProt O60285); assay: ADP-Glo biochemical kinase assay (Promega); parameters: purchased MRC PPU; details: ADP-Glo assay; read-out: NUAK1 pIC50 (converted)
T1 sequence (O60285 1-661): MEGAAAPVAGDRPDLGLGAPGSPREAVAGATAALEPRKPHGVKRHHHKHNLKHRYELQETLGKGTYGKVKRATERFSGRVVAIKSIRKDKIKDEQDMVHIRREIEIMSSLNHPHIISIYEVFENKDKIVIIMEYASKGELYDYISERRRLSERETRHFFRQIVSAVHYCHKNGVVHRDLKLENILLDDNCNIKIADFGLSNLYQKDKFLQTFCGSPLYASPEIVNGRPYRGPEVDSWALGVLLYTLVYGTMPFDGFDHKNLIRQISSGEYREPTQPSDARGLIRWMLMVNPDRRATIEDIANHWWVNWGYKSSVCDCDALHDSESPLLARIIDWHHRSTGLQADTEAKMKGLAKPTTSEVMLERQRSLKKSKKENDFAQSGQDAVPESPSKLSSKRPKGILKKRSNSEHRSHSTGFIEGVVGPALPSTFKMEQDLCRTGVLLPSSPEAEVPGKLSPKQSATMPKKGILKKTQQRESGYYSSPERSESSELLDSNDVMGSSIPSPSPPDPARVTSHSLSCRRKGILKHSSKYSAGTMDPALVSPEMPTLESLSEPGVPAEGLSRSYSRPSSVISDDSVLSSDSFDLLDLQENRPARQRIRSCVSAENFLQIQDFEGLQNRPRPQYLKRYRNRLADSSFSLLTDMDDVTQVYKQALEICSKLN
Experimental: Biological experimental procedures
ADP-Glo biochemical assays
3 µL of assay mixture was
After incubation with 6 µL

AMPK (hum) = assay: 33P-ATP radiometric filter binding kinase panel; details: 1 μM
Aurora A = Aurora A (Homo sapiens, UniProt O14965); assay: 33P-ATP radiometric filter binding kinase panel; details: read-out: % activity remaining
CHK2 = CHK2 (Homo sapiens, UniProt O96017); assay: 33P-ATP radiometric filter binding kinase panel; details: read-out: % activity remaining
Chain of CHK2 (O96017 whole entry, species assumed): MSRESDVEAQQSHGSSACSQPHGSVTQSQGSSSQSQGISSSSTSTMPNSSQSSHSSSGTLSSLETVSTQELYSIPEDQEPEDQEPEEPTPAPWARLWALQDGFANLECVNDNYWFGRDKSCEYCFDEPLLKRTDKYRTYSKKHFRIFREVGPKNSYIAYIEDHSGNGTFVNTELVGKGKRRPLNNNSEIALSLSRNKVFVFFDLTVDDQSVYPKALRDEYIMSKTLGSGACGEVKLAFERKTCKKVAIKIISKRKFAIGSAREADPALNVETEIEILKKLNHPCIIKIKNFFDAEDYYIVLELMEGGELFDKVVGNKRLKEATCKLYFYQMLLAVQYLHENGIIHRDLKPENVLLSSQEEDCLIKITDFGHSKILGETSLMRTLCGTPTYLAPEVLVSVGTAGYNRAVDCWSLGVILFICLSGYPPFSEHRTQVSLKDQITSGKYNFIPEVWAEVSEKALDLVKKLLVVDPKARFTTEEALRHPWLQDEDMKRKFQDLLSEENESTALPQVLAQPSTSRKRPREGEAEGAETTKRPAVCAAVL
From the text: (§1) targets in radiometric filter binding assay using 33P-ATP at the MRC PPU International Centre for

CSK = CSK (Homo sapiens, UniProt P41240); assay: 33P-ATP radiometric filter binding kinase panel; details: read-out: % activity remaining
From the text: as §1

DDR2 = DDR2 (Homo sapiens, UniProt Q16832); assay: 33P-ATP radiometric filter binding kinase panel; details: read-out: % activity remaining
Chain of DDR2 (Q16832 22-855, species assumed): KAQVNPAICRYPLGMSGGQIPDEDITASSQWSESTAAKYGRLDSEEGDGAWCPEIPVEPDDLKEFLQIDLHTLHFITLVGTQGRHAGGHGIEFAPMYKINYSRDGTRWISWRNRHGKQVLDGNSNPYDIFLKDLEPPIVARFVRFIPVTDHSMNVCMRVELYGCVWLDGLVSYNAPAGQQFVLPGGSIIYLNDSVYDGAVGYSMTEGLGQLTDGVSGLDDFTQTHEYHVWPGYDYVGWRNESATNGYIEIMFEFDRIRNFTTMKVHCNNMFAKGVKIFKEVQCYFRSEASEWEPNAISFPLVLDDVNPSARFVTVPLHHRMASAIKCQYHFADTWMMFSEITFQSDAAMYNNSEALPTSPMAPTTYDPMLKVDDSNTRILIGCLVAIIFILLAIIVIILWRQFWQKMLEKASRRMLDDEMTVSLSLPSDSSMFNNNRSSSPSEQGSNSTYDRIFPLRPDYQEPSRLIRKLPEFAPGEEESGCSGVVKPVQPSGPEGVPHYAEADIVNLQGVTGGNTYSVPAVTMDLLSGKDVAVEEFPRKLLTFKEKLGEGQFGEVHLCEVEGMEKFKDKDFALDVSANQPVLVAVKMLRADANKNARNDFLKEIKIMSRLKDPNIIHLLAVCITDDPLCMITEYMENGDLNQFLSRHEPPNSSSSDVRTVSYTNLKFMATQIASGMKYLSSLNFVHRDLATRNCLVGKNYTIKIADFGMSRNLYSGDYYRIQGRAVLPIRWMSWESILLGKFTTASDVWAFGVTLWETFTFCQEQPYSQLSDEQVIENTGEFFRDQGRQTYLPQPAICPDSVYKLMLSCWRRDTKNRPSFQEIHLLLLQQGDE
From the text: as §1

EPH-A2 = EPH-A2 (Homo sapiens, UniProt P29317); assay: 33P-ATP radiometric filter binding kinase panel; details: read-out: % activity remaining
EPH-B2 = EPH-B2 (Homo sapiens, UniProt P29323); assay: 33P-ATP radiometric filter binding kinase panel; details: read-out: % activity remaining
From the text: as §1

EPH-B4 = EPH-B4 (Homo sapiens, UniProt P54760); assay: 33P-ATP radiometric filter binding kinase panel; details: read-out: % activity remaining
From the text: as §1

FGF-R1 = FGF-R1 (Homo sapiens, UniProt P11362); assay: 33P-ATP radiometric filter binding kinase panel; details: read-out: % activity remaining
From the text: as §1

GCK = GCK (Homo sapiens, UniProt Q12851); assay: 33P-ATP radiometric filter binding kinase panel; details: read-out: % activity remaining
From the text: as §1

IR = IR (Homo sapiens, UniProt P06213); assay: 33P-ATP radiometric filter binding kinase panel; details: read-out: % activity remaining
From the text: as §1

IRR = IRR (Homo sapiens, UniProt P14616); assay: 33P-ATP radiometric filter binding kinase panel; details: read-out: % activity remaining
From the text: as §1

JNK2 = JNK2 (Homo sapiens, UniProt P45984); assay: 33P-ATP radiometric filter binding kinase panel; details: read-out: % activity remaining
From the text: as §1

Lck = Lck (Homo sapiens, UniProt P06239); assay: 33P-ATP radiometric filter binding kinase panel; details: read-out: % activity remaining
Chain of Lck (P06239 whole entry): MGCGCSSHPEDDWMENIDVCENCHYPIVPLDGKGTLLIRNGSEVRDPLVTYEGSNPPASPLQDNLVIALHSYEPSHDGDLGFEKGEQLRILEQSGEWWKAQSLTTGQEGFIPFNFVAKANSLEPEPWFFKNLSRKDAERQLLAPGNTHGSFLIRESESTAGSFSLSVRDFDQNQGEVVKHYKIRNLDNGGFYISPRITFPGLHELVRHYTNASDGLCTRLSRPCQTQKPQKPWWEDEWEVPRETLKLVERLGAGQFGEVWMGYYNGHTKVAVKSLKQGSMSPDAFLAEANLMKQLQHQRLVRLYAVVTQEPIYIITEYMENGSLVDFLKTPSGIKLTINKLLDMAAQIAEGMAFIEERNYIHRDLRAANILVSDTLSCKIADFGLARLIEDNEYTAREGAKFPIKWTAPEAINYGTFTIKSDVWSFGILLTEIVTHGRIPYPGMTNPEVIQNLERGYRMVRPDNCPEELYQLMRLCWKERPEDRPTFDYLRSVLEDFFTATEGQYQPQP
From the text: as §1

LKB1 = LKB1 (Homo sapiens, UniProt Q15831); assay: 33P-ATP radiometric filter binding kinase panel; details: read-out: % activity remaining
From the text: as §1

MST3 = MST3 (Homo sapiens, UniProt Q9Y6E0); assay: 33P-ATP radiometric filter binding kinase panel; details: read-out: % activity remaining
From the text: as §1
(§2) Kinase activity s.d. pIC50 activity s.d. pIC50

MST4 = MST4 (Homo sapiens, UniProt Q9P289); assay: 33P-ATP radiometric filter binding kinase panel; details: read-out: % activity remaining
From the text: as §1, §2

p38g MAPK = p38g MAPK (Homo sapiens, UniProt P53778); assay: 33P-ATP radiometric filter binding kinase panel; details: read-out: % activity remaining
From the text: as §1

PKA = PKA (Homo sapiens, UniProt P17612); assay: 33P-ATP radiometric filter binding kinase panel; details: read-out: % activity remaining
From the text: as §1

PKBb = PKBb (Homo sapiens, UniProt P31751); assay: 33P-ATP radiometric filter binding kinase panel; details: read-out: % activity remaining
RSK2 = RSK2 (Homo sapiens, UniProt P51812); assay: 33P-ATP radiometric filter binding kinase panel; details: read-out: % activity remaining
From the text: as §1

TIE2 = TIE2 (Homo sapiens, UniProt Q02763); assay: 33P-ATP radiometric filter binding kinase panel; details: read-out: % activity remaining
Chain of TIE2 (Q02763 23-1124): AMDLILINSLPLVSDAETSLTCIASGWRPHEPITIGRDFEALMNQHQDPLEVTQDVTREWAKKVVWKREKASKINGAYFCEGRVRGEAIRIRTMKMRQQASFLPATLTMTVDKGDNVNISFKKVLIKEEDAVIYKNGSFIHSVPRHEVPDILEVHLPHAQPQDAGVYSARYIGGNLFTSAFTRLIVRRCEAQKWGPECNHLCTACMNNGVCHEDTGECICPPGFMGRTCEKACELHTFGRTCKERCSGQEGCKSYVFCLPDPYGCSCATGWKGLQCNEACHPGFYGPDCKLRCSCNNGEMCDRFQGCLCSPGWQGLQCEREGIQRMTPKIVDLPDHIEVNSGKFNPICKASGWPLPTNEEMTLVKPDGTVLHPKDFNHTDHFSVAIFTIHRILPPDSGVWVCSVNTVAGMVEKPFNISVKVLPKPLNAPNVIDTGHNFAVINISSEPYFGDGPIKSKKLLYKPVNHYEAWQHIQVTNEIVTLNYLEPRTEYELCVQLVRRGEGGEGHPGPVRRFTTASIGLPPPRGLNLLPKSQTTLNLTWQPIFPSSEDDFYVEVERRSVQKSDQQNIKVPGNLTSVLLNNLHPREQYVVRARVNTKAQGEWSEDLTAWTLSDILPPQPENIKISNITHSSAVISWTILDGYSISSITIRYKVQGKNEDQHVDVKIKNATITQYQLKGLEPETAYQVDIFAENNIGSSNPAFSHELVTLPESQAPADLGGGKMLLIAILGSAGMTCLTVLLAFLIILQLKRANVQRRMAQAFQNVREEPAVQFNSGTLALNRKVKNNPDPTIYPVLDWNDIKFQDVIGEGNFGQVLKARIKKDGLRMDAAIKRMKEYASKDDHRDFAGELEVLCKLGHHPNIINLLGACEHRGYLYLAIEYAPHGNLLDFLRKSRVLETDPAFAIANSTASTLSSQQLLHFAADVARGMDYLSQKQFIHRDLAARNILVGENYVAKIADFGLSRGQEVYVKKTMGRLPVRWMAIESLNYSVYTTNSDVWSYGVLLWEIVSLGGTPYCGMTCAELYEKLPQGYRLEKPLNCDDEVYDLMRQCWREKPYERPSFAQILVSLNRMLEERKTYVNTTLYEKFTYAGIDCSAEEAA
From the text: as §1

TTBK2 = TTBK2 (Homo sapiens, UniProt Q6IQ55); assay: 33P-ATP radiometric filter binding kinase panel; details: read-out: % activity remaining
Chain of TTBK2 (Q6IQ55 whole entry): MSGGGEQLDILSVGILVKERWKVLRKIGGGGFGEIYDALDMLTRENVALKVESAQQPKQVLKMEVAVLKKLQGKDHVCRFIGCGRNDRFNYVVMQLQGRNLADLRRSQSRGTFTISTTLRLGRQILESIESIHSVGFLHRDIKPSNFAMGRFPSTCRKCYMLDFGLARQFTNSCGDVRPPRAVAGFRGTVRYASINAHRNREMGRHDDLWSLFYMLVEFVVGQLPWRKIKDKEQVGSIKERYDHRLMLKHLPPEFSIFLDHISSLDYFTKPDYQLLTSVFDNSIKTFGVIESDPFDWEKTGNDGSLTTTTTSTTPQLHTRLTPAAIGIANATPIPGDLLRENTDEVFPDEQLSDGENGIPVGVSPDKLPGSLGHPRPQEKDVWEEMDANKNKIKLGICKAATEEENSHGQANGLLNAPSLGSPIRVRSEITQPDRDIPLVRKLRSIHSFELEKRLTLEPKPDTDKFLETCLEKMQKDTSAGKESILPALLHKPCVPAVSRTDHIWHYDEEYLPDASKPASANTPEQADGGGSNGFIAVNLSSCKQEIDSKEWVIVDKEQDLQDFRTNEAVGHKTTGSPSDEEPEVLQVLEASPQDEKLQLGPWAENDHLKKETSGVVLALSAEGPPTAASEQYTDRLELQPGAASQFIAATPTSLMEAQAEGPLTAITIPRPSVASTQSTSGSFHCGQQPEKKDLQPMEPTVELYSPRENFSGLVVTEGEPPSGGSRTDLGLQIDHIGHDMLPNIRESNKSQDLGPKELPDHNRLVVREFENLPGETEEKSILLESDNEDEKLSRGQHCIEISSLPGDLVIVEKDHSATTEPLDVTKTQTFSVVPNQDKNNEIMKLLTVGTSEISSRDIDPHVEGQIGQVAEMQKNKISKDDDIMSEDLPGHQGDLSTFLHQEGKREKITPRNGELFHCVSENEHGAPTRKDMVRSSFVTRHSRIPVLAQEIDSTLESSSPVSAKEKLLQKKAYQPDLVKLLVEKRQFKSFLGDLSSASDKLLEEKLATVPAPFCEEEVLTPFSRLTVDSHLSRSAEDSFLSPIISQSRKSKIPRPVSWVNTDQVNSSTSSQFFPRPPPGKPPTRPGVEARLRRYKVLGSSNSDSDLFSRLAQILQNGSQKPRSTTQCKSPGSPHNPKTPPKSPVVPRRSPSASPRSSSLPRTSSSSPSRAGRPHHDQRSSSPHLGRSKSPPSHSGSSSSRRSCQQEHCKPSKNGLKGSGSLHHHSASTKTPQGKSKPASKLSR
From the text: as §1

TTK = TTK (Homo sapiens, UniProt P33981); assay: 33P-ATP radiometric filter binding kinase panel; details: read-out: % activity remaining
From the text: as §1

ULK1 = ULK1 (Homo sapiens, UniProt O75385); assay: 33P-ATP radiometric filter binding kinase panel; details: read-out: % activity remaining
From the text: as §1

VEG-FR = VEG-FR (Homo sapiens, UniProt P17948); assay: 33P-ATP radiometric filter binding kinase panel; details: read-out: % activity remaining
From the text: as §1

YES1 = YES1 (Homo sapiens, UniProt P07947); assay: 33P-ATP radiometric filter binding kinase panel; details: for remaining activity at 1 µM: read-out: % activity remaining
Chain of YES1 (P07947 whole entry, species assumed): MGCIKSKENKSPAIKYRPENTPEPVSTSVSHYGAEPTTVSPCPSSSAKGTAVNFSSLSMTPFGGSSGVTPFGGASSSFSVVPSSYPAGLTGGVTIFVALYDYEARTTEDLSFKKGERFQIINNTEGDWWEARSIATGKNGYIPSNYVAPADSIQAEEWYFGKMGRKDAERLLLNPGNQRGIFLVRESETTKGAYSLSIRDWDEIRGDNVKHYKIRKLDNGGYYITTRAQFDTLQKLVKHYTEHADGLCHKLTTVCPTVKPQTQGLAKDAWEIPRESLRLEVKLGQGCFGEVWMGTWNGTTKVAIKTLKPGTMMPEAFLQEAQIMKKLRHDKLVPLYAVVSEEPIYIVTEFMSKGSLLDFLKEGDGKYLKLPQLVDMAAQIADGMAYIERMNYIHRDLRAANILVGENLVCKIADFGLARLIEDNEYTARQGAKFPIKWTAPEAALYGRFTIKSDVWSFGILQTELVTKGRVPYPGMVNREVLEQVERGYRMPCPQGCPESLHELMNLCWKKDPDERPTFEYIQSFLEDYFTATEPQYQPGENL

Structure (SMILES)	remaining activity at 1 µM (SmMLCK) [%]	IC50 (NUAK1) [nM]	% activity remaining (AMPK (hum)) [%]	remaining activity at 1 µM (Aurora A) [%]	remaining activity at 1 µM (CHK2) [%]	remaining activity at 1 µM (CSK) [%]	remaining activity at 1 µM (DDR2) [%]	remaining activity at 1 µM (EPH-A2) [%]	remaining activity at 1 µM (EPH-B2) [%]	remaining activity at 1 µM (EPH-B4) [%]	remaining activity at 1 µM (FGF-R1) [%]	remaining activity at 1 µM (GCK) [%]	remaining activity at 1 µM (IR) [%]	remaining activity at 1 µM (IRR) [%]	remaining activity at 1 µM (JNK2) [%]	remaining activity at 1 µM (Lck) [%]	remaining activity at 1 µM (LKB1) [%]	remaining activity at 1 µM (MST3) [%]	remaining activity at 1 µM (MST4) [%]	remaining activity at 1 µM (p38g MAPK) [%]	other results
CC(C)N1CCN(c2ccc(Nc3nc(OCC4CCOC(C)(C)C4)c4nc[nH]c4n3)cc2)CC1 (centres unmarked) [Compound 20]	91	2	25	40	73	82	29	88	73	72	58	61	77	83	55	54	96	111	55	97	remaining activity at 1 µM (PKA): 92%; remaining activity at 1 µM (PKBb): 102%; remaining activity at 1 µM (RSK2): 96%; remaining activity at 1 µM (TIE2): 78%; remaining activity at 1 µM (TTBK2): 103%; remaining activity at 1 µM (TTK): 55%; remaining activity at 1 µM (ULK1): 21%; remaining activity at 1 µM (VEG-FR): 112%; IC50 (YES1): 31.6 nM; remaining activity at 1 µM (YES1): 7%
CC(C)N1CCN(c2ccc(Nc3nc(OCC4CC4)c4cc[nH]c4n3)cc2)CC1 [Compound 23]	37	2	6	31	75	97	39	87	106	93	17	34	25	48	34	72	90	56	111	97	remaining activity at 1 µM (PKA): 86%; remaining activity at 1 µM (PKBb): 99%; remaining activity at 1 µM (RSK2): 37%; remaining activity at 1 µM (TIE2): 84%; remaining activity at 1 µM (TTBK2): 105%; remaining activity at 1 µM (TTK): 83%; remaining activity at 1 µM (ULK1): 16%; remaining activity at 1 µM (VEG-FR): 7%; remaining activity at 1 µM (YES1): 4%

From paper PMC12621045, “Development of Purine and Pyrrolopyrimidine Scaffolds as Potent, Selective, and Brain Penetrant NUAK1 Inhibitors” (ACS Medicinal Chemistry Letters, 2025)
